# B1: wt-ERα ^LBD: recombinant His6-tagged polypeptide fragment 303-547 (ligand binding domain) of human ERα, wild type (protein, UniProt P03372 303-547, looked up, fragment)
# chain: KNSLALSLTADQMVSALLDAEPPILYSEYDPTRPFSEASMMGLLTNLADRELVHMINWAKRVPGFVDLTLHDQVHLLECAWLEILMIGLVWRSMEHPGKLLFAPNLLLDRNQGKCVEGMVEIFDMLLATSSRFRMMNLQGEEFVCLKSIILLNSGVYTFLSSTLKSLEEKDHIHRVLDKITDTLIHLMAKAGLTLQQQHQRLAQLLLILSHIRHMSNKGMEHLYSMKCKNVVPLYDLLLEMLDAH
# modifications: ligand binding domain His6 tag
# How the values were obtained:
# wt-ERα ^LBD = target: T1, wt-ERα ^LBD (Homo sapiens, UniProt P03372); experiment: PolarScreen competitive binding assay (fluorescence polarization) with wt-ERα LBD
# T1 construct: The polypeptide fragment 303-547 of the human ERα has been thus cloned; made in house; host or cells: E. coli Rosetta 2(DE3)pLysS
# T1 sequence (P03372 303-547): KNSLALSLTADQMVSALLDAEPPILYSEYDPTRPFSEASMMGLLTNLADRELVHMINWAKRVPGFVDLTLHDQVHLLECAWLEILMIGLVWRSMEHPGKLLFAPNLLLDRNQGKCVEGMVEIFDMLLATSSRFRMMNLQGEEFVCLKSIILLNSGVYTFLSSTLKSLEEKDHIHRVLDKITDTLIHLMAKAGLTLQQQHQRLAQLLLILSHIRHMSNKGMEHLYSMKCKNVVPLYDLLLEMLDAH
# Description: (§1) The PolarScreen assay was used to test the ligand binding affinity of wt-ERα ^LBD and its mutants towards different classes of estrogen disrupting compounds.
# (§2) Each compound was tested in a range of 12 concentrations with the ER receptors (Figure 5). The compounds concentrations (X axis) were plotted in a logarithmic scale against the Polarization values (Y axis). The plot of compounds concentrations against Polarization were fitted with a one site competition […] logistic curve (see Materials and Methods for further details).
# (§3) To test the binding affinity of the recombinant receptor for EDCs we used the competitive binding assay developed by Life Technologies for ERα, the PolarScreen Estrogen Receptor-α Competitor Green Assay.
# (§4) The full length ERα provided with the kit was replaced by our recombinant ERα ^LBD. […] This complex is then mixed and incubated at 25°C for 2 h with the individual EDCs and the intensity of the fluorescence polarization signal (directly proportional to the amount of Fluormone bound to the protein) measured. The addition of competitors displaces the Fluormone from the ERα ^LBD receptor, resulting in a decreased fluorescence signal. The fluorescence polarization anisotropy signal (P) is read using an Infinite 200 Pro multimode plate reader from Tecan and calculated with the following equation: [drawing 1] […]
# M421F-ERα ^LBD = target: T2, M421F-ERα ^LBD (Homo sapiens, UniProt P03372, M421F); experiment: PolarScreen competitive binding assay (fluorescence polarization) with M421F mutant
# T2 construct: The polypeptide fragment 303-547 of the human ERα has been thus cloned; made in house; host or cells: E. coli Rosetta 2(DE3)pLysS
# T2 sequence (P03372 303-547 M421F): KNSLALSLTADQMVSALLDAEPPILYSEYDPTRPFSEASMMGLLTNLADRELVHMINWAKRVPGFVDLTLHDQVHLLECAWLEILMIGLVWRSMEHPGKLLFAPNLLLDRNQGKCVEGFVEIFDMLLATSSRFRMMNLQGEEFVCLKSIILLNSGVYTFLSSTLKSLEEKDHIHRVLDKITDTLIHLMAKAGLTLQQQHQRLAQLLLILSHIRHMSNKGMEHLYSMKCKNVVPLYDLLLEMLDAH
# Description: as §1, §2, §3
# The full length ERα provided with the kit was replaced by our recombinant ERα ^LBD. In short, wt or mutant ERα ^LBD are added to the Fluormone and incubated at 4°C for 45 minutes to form the receptor-Fluormone complex. This complex is then mixed and incubated at 25°C for 2 h with the individual EDCs and the intensity of the fluorescence polarization signal (directly proportional to the amount of Fluormone bound to the protein) measured. The addition of competitors displaces the Fluormone from the ERα ^LBD receptor, resulting in a decreased fluorescence signal. The fluorescence polarization anisotropy signal (P) is read using an Infinite 200 Pro multimode plate reader from Tecan and calculated with the following equation: [drawing 1]
# The P data (y) were fitted against the competitor concentrations (x) with a typical one site competition three parameters logistic curve: [drawing 2]
# LogIC50 = Log of the concentration of test compound required to reduce the maximum polarization value by 50%. All the resulting IC50 values are obtained by the average of at least four different experiments.
# M421I-ERα ^LBD = target: T3, M421I-ERα ^LBD (Homo sapiens, UniProt P03372, M421I); experiment: PolarScreen competitive binding assay (fluorescence polarization) with M421I mutant
# T3 construct: The polypeptide fragment 303-547 of the human ERα has been thus cloned; made in house; host or cells: E. coli Rosetta 2(DE3)pLysS
# T3 sequence (P03372 303-547 M421I): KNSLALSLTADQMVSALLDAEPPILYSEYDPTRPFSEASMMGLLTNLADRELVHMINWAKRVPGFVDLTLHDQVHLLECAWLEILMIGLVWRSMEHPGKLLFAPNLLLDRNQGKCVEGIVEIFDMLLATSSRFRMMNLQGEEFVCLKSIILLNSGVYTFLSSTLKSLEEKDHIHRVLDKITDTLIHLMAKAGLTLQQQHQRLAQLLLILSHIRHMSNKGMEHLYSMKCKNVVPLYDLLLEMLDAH
# Description: as §1, §2, §3, §4
# [1] = Thermal unfolding followed by CD spectroscopy at 222 nm; type: physicochemical
# Description: The thermal stability of the different ERs was assessed by following the protein thermal unfolding between 25 and 90°C with CD spectroscopy (Figures 3D, 3E and 3F). The unfolding process is not reversible: by cooling back the samples to 25°C only around 50% of the original secondary structure of the protein is recovered (data not shown). By fitting the experimental data with a Boltzmann-type equation it was possible to calculate melting temperature (Tm) values of 59.5±1.5°C, 65.8±1.4°C, and 61.5±1.3°C for the wt-ERα ^LBD, M421F-ERα ^LBD, and M421I-ERα ^LBD proteins, respectively.
# Circular dichroism spectra were recorded with a J750 Circular dichroism spectrometer from Jasco interfaced with a Peltier temperature control unit with 1 mm path length cuvette. Analysis of the far-UV region (185–260 nm) was used to investigate the secondary structure and the folding of the protein. CD spectra were analyzed with the DichroWeb online software, by means of the CDSSTR program. Thermal denaturation experiments were performed by monitoring the circular dichroism at 222 nm while changing the temperature from 25 to 90°C (1°C/min) and backward. Reference spectra were collected for the buffers in which proteins were dissolved. Denaturation curves were analyzed assuming a two-state unfolding model and melting temperature (Tm) was calculated for every mutant. […]
molecule,measurement,setting,value
CCCCCCCCCc1ccc(O)cc1 [4-Nonylphenol],IC50,wt-ERα ^LBD,8 ± 1 µM
same,IC50,M421F-ERα ^LBD,4 ± 2 µM
same,IC50 of M421F-ERα ^LBD compared to wt-ERα ^LBD (in words),M421F-ERα ^LBD; M421F versus wt,twice as strong
same,IC50,M421I-ERα ^LBD,60 ± 30 µM
CC(C)(c1ccc(O)cc1)c1ccc(O)cc1 [Bisphenol-A],binds more strongly to M421F-ERα ^LBD than to wt-ERα ^LBD,"M421F-ERα ^LBD; from IC50 values, M421F versus wt",approximately 6 times
B1,melting temperature (Tm),"[1]; CD at 222 nm, 25 to 90°C, Boltzmann-type fit",59.5±1.5 °C
same,melting temperature higher than that previously reported for the full-length ERα protein,[1]; versus full-length ERα,about 20 °C
